Tests used:
[1] = target: T1, human lipocalin 2 (hNGAL) mutein SEQ ID NO: 35 (Homo sapiens, UniProt P80188, A60T/C107S/D97H/K145I/K154W/K93R/L123T/L56V/L90R/N85Q/Q48H/Q69G/R101D/R92I/S147R/S88D/T74A/W99Y/Y126Q/Y152I/Y72N); test: SPR (Biacore T200), mutein SEQ ID NO: 35; assay type: binding
T1 construct: made in house; host or cells: E. coli
Description: (§6) In a Surface Plasmon Resonance (SPR) based assay a Biacore T200 instrument (GE Healthcare) was used to measure the binding affinity of muteins to pyoverdine I succinyl, -succinamid, -α-ketoglutaryl with complexed iron ion or to pyoverdine II succinyl, -succinamid, -α-ketoglutaryl with complexed iron ion or to pyoverdine III succinyl, -succinamid, -α-ketoglutaryl with complexed iron ion. Muteins selected for binding to pyoverdines and negative control (SEQ ID NO: 64) were biotinylated for 2 h at room temperature applying an appropriate excess of EZ-Link NHS-PEG4-Biotin (Thermo, Cat#21329) followed by separation of non-reacted Biotin using a Zeba Spin Desalting Plate (Thermo, Cat#21329) according to the manufactures instructions.
(§7) Applying a flow rate of 30 μl/min, a single cycle or multi cycle kinetics approach was used with a sample contact time of 120-180 s and a dissociation time of 900-2400 s. […] After ligand immobilization, for analysis using single cycle kinetics all 4-5 concentrations of Pvd were applied consecutively in ascending order before the dissociation was monitored. For analysis using multi cycle kinetics 4 dilutions of Pvd were applied, each followed a dissociation phase. All measurements were performed at 25° C. […] Data were evaluated with Biacore T200 Evaluation software (V 1.0). Double referencing was used. A 1:1 Binding model was used to fit the raw data.

[2] = target: natural wild-type hNGAL (human lipocalin 2) (Homo sapiens, UniProt P80188); details: Peek et al. 2012; cited from earlier work
[3] = target: T2, human lipocalin 2 (hNGAL) mutein SEQ ID NO: 32 (Homo sapiens, UniProt P80188, A60E/C107S/D97N/E64D/I61V/K145N/K154W/K93N/L123V/L56V/L90R/N116K/N85D/Q48H/Q69G/R101E/R92H/S147K/S88E/W99F/Y120N/Y126M/Y152G/Y72P); test: SPR (Biacore T200), mutein SEQ ID NO: 32; assay type: binding; details: 25° C.
T2 construct: made in house; host or cells: E. coli
T2 sequence (P80188 21-198 with the stated changes): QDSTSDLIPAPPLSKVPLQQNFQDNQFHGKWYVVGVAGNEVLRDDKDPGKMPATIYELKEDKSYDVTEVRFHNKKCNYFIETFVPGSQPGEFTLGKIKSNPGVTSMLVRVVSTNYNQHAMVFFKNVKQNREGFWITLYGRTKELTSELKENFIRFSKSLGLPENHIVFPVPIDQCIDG
Description: as §6, §7

[4] = target: T3, human lipocalin 2 (hNGAL) mutein SEQ ID NO: 8 (Homo sapiens, UniProt P80188, A60T/C107S/D97I/I100T/I61T/K145Y/K154N/K93E/L123Q/L56W/L90Q/N116G/Q48H/Q69P/R101I/R92P/S147I/S88D/W99S/Y120S/Y126H/Y152G/Y72P); test: SPR (Biacore T200), mutein SEQ ID NO: 8; assay type: binding; details: 25° C.
T3 construct: made in house; host or cells: E. coli
T3 sequence (P80188 other isoform, or with tags, fused parts or gaps with the stated changes): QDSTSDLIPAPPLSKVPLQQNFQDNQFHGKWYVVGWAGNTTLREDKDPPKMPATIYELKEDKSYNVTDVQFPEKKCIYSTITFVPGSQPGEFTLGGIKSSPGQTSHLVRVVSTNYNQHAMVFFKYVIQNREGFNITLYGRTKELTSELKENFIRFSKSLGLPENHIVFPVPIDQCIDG
Description: as §6

[5] = target: T4, human lipocalin 2 (hNGAL) mutein SEQ ID NO: 16 (Homo sapiens, UniProt P80188, A60T/C107S/D97I/I100T/I61A/K145Y/K154N/K93E/K95E/L123Q/L56W/L90Q/N116G/N85D/Q69P/R101I/R92P/S147T/S88D/T156A/T74V/W99S/Y120S/Y126H/Y152G/Y72P); test: SPR (Biacore T200), mutein SEQ ID NO: 16; assay type: binding; details: 25° C.
T4 construct: made in house; host or cells: E. coli
T4 sequence (P80188 21-198 with the stated changes): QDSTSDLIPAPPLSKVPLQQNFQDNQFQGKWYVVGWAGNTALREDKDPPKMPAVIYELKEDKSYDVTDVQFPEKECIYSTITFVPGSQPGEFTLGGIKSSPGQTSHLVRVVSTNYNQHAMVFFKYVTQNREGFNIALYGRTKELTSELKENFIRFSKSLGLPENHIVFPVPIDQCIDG
Description: as §6

[6] = target: T5, human lipocalin 2 (hNGAL) mutein SEQ ID NO: 13 (Homo sapiens, UniProt P80188, A60T/C107S/D97I/I100T/I61T/K145Y/K154N/K93E/K95E/L123Q/L56W/L90Q/N116G/Q48H/Q69P/R101I/R92P/S147T/S88D/T74V/W99S/Y120S/Y126H/Y152G/Y72P); test: SPR (Biacore T200), mutein SEQ ID NO: 13; assay type: binding; details: 25° C.
T5 construct: made in house; host or cells: E. coli
T5 sequence (P80188 21-198 with the stated changes): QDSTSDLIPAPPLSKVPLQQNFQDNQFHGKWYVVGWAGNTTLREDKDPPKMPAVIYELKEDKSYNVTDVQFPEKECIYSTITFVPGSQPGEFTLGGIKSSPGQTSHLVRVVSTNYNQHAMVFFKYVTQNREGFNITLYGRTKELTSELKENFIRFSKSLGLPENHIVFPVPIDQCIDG
Description: as §6

[7] = target: T6, human lipocalin 2 (hNGAL) mutein SEQ ID NO: 36 (Homo sapiens, UniProt P80188, A60T/C107S/D97H/K145I/K154W/K93R/L123T/L56V/L90R/N85D/Q69G/R101D/R92I/S147R/S88D/T74A/W99Y/Y126Q/Y152I/Y72N); test: SPR (Biacore T200), mutein SEQ ID NO: 36; assay type: binding; details: 25° C.
T6 construct: made in house; host or cells: E. coli
T6 sequence (P80188 21-198 with the stated changes): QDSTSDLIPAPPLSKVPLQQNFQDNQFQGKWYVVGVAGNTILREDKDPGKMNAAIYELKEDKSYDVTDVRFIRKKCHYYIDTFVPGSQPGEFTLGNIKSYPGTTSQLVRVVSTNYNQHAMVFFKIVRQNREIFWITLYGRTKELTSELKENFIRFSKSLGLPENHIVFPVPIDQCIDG
Description: as §6

[8] = target: T7, human lipocalin 2 (hNGAL) mutein SEQ ID NO: 11 (Homo sapiens, UniProt P80188, A60T/C107S/D97V/I61T/K145Y/K154N/K93D/L123N/L56W/L90Q/N116G/Q48H/Q69P/R101I/R92P/S147V/S88D/W99S/Y120N/Y126H/Y152G/Y72P); test: SPR (Biacore T200), mutein SEQ ID NO: 11; assay type: binding; details: 25° C.
T7 construct: made in house; host or cells: E. coli
T7 sequence (P80188 21-198 with the stated changes): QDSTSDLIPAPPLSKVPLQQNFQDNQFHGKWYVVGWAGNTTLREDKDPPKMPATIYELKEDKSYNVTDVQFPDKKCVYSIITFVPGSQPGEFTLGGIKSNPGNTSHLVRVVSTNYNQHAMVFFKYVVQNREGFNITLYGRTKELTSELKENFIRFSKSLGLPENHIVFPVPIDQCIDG
Description: as §6

[9] = target: T8, human lipocalin 2 (hNGAL) mutein SEQ ID NO: 10 (Homo sapiens, UniProt P80188, A60T/C107S/D97T/I61T/K145Y/K154N/K93E/L123E/L56W/L90Q/N116D/Q48H/Q69P/R101I/R92P/S147D/S88D/V131M/W99S/Y120N/Y126H/Y152G/Y72P); test: SPR (Biacore T200), mutein SEQ ID NO: 10; assay type: binding; details: 25° C.
T8 construct: made in house; host or cells: E. coli
T8 sequence (P80188 other isoform, or with tags, fused parts or gaps with the stated changes): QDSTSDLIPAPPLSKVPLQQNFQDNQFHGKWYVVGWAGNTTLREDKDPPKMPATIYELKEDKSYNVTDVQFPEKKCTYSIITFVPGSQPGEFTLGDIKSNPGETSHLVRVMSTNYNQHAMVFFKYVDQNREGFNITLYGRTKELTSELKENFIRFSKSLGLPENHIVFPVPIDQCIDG
Description: as §6

[10] = target: T9, human lipocalin 2 (hNGAL) mutein SEQ ID NO: 33 (Homo sapiens, UniProt P80188, A60E/C107S/D97N/E64D/I61V/K145N/K154W/K93N/L123V/L56V/L90R/N116K/N85Q/Q48H/Q69G/R101E/R92H/S147K/S88E/W99F/Y120N/Y126M/Y152G/Y72P); test: SPR (Biacore T200), mutein SEQ ID NO: 33; assay type: binding; details: 25° C.
T9 construct: made in house; host or cells: E. coli
T9 sequence (P80188 21-198 with the stated changes): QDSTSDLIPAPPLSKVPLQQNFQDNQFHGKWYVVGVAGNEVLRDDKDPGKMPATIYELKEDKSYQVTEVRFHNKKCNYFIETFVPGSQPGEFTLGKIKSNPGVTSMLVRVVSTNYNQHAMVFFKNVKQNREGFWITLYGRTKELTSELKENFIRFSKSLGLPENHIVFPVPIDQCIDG
Description: as §6, §7

[11] = target: T10, human lipocalin 2 (hNGAL) mutein SEQ ID NO: 53 (Homo sapiens, UniProt P80188, A60L/C107S/D97K/I61A/K154W/K93H/L123Q/L56E/L62R/L90R/N116L/N85D/Q69M/R101V/S125P/S147V/S88E/W99D/Y120D/Y126E/Y72M); test: SPR (Biacore T200), mutein SEQ ID NO: 53; assay type: binding; details: 25° C.
T10 construct: made in house; host or cells: E. coli
T10 sequence (P80188 21-198 with the stated changes): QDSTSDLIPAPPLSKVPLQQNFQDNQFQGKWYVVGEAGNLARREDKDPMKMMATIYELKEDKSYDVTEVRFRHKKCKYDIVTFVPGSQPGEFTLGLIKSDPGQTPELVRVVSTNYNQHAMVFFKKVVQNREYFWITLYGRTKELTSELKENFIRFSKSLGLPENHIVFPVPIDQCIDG
Description: (§1) In a Surface Plasmon Resonance (SPR) based assay a Biacore T200 instrument (GE Healthcare) was used to measure the binding affinity of muteins to pyoverdine I succinyl, -succinamid, -α-ketoglutaryl with complexed iron ion or to pyoverdine II succinyl, -succinamid, -α-ketoglutaryl with complexed iron ion or to pyoverdine III succinyl, -succinamid, -α-ketoglutaryl with complexed iron ion. Muteins selected for binding to pyoverdines and negative control (SEQ ID NO: 64) were biotinylated for 2 h at room temperature applying an appropriate excess of EZ-Link NHS-PEG4-Biotin (Thermo, […]) followed by separation of non-reacted Biotin using a Zeba Spin Desalting Plate (Thermo, […]) according to the manufactures instructions.
In the SPR affinity assay, biotinylated muteins and negative control were captured on a sensor chip CAP using the Biotin CAPture Kit (GE Healthcare): Sensor Chip CAP is pre-immobilized with an ssDNA oligo. […]
(§2) Applying a flow rate of 30 μl/min, a single cycle or multi cycle kinetics approach was used with a sample contact time of 120-180 s and a dissociation time of 900-2400 s. […] After ligand immobilization, for analysis using single cycle kinetics all 4-5 concentrations of Pvd were applied consecutively in ascending order before the dissociation was monitored. […] Data were evaluated with Biacore T200 Evaluation software (V 1.0). […]

[12] = target: T11, human lipocalin 2 (hNGAL) mutein SEQ ID NO: 9 (Homo sapiens, UniProt P80188, A60T/C107S/D97I/I61T/K145Y/K154N/K93D/L123D/L56W/L90Q/N116G/Q48H/Q69P/R101I/R92P/S147V/S88D/W99S/Y120N/Y126H/Y152G/Y72P); test: SPR (Biacore T200), mutein SEQ ID NO: 9; assay type: binding; details: 25° C.
T11 construct: made in house; host or cells: E. coli
T11 sequence (P80188 other isoform, or with tags, fused parts or gaps with the stated changes): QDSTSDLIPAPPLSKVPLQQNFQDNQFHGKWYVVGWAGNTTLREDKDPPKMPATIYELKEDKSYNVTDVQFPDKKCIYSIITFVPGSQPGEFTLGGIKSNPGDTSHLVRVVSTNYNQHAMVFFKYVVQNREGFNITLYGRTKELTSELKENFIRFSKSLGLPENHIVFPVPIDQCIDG
Description: as §6

[13] = target: T12, human lipocalin 2 (hNGAL) mutein SEQ ID NO: 56 (Homo sapiens, UniProt P80188, A60F/C107S/D97A/I61H/K145G/K154V/K93A/L123M/L56M/L90P/N116A/Q48H/Q69S/R101I/R92W/S147W/S88H/W99K/Y120G/Y126W/Y152T/Y72P); test: Solution binding ELISA, mutein SEQ ID NO: 56
T12 construct: made in house; host or cells: E. coli
T12 sequence (P80188 21-198 with the stated changes): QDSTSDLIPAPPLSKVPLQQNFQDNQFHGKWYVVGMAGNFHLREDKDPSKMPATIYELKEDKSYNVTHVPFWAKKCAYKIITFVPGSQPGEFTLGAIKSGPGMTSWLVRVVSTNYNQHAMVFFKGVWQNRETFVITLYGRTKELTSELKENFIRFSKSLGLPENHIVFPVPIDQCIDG
Description: (§8) In detail, a 384-well plate suitable for fluorescence measurements (Greiner FLUOTRAC™ 600, black flat bottom, high-binding) was coated with 20 μl of Neutravidin at a concentration of 5 μg/ml in PBS over night at 4 C. After washing, the Neutravidin-coated wells were blocked with 100 μl blocking buffer containing 0.1% Tween 20 and 2% BSA (PBS-T/BSA) for 1 h at room temperature.
(§9) The residual supernatants were discarded and 20 μl HRP-labeled anti-hNGAL antibody was added at a predetermined optimal concentration in PBS-T/BSA and incubated for 1 h at RT. […] After washing, 20 μl fluorogenic HRP substrate (QuantaBlu, Thermo) was added to each well, and the reaction was allowed to proceed for 15 to 60 minutes. The fluorescence intensity of every well on the plate was read using a fluorescence microplate reader (Tecan or Molecular Devices). […] Curve fitting was performed using GraphPad Prism 4 software.

[14] = target: T13, human lipocalin 2 (hNGAL) mutein SEQ ID NO: 57 (Homo sapiens, UniProt P80188, A60Y/C107S/D97R/I61W/K145L/K154N/K93R/L123Q/L56V/L90R/N116P/Q48H/Q69A/R101W/R92W/S147R/S88D/W99D/Y120E/Y126R/Y152A); test: Solution binding ELISA, mutein SEQ ID NO: 57
T13 construct: made in house; host or cells: E. coli
T13 sequence (P80188 21-198 with the stated changes): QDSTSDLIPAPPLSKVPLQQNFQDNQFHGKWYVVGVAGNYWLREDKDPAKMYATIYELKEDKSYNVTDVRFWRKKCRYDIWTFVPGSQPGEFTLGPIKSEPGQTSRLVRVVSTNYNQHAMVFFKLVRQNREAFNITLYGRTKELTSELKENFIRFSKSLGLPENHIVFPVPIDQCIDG
Description: as §8, §9

[15] = target: T14, human lipocalin 2 (hNGAL) muteins from affinity optimization of SEQ ID NO: 56 (Homo sapiens, UniProt P80188); test: Solution binding ELISA, muteins from affinity optimization of SEQ ID NO: 56
T14 construct: C-terminal SA linker and Strep-tag II; E. coli
T14 sequence (P80188 21-198, stated change not applied): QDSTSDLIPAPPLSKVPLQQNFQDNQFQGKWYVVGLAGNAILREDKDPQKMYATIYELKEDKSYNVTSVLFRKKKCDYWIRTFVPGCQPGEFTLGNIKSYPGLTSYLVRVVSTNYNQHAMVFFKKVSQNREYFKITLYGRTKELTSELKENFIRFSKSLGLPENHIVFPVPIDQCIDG
Description: (§3) Solution binding of muteins was assayed by a “Solution binding ELISA”, the principle of which was as follows: a constant concentration of the tested mutein was incubated with variable concentrations of ligands (Pvd I s, sa, aKG+/−Fe/Pvd II s, sa, aKG+/−Fe/Pvd III s, sa, aKG+/−Fe/Pch+/−Fe) for 1 h. After this pre-incubation in solution, an aliquot of the mutein/ligand mixture was transferred to an ELISA plate with biotinalyted Pvd I s (+Fe), Pvd II s (+Fe), Pvd III s (+Fe) or Pch immobilized via Neutravidin to measure the remaining concentration of free muteins. The concentration of free (non ligand-bound) muteins was determined via a quantitative ELISA setup.
(§4) In detail, a 384-well plate suitable for fluorescence measurements (Greiner FLUOTRAC™ 600, black flat bottom, high-binding) was coated with 20 μl of Neutravidin at a concentration of 5 μg/ml in PBS over night at 4 C. […]
(§5) The residual supernatants were discarded and 20 μl HRP-labeled anti-hNGAL antibody was added at a predetermined optimal concentration in PBS-T/BSA and incubated for 1 h at RT. […] The fluorescence intensity of every well on the plate was read using a fluorescence microplate reader (Tecan or Molecular Devices). To evaluate the data, free mutein concentration, c(mutein)free, was calculated based on the standard curve results, and plotted versus ligand concentration, c(Ligand). […]

[16] = target: negative control lipocalin SEQ ID NO: 64 (Homo sapiens, UniProt P80188, C107S/Q48H); test: SPR (Biacore T200), negative control SEQ ID NO: 64; assay type: binding; details: 200 nM
Sequence of negative control lipocalin SEQ ID NO: 64 (P80188 21-198 Q48H/C107S): as the sequence (P80188 21-198, stated change not applied) above, with Q28H, C87S counted along it
Description: as §1
In the SPR affinity assay, biotinylated muteins and negative control were captured on a sensor chip CAP using the Biotin CAPture Kit (GE Healthcare): Sensor Chip CAP is pre-immobilized with an ssDNA oligo. Undiluted Biotin CAPture Reagent (streptavidin conjugated with the complementary ss-DNA oligo) was applied at a flow rate of 2 μl/min for 300 s. Subsequently, 1 μg/ml to 100 μg/mL of biotinylated muteins or negative control were applied for 300 s at a flow rate of 5 μl/min. The reference channel was loaded with Biotin CAPture Reagent only.
as §2, with “monitored. For analysis using multi cycle kinetics 4 dilutions of Pvd were applied, each followed a dissociation phase. All measurements were performed at 25° C.” for “monitored.”, “1.0). Double referencing was used. A 1:1 Binding model was used to fit the raw data.” for “1.0).”

[17] = target: T15, human lipocalin 2 (hNGAL) muteins from affinity optimization of SEQ ID NO: 55 (Homo sapiens, UniProt P80188); test: Solution binding ELISA, muteins from affinity optimization of SEQ ID NO: 55
T15 construct: C-terminal SA linker and Strep-tag II; E. coli
T15 sequence (P80188 21-198, stated change not applied): as the sequence (P80188 21-198, stated change not applied) above
Description: as §3, §4, §5

T1 sequence (P80188 21-198 with the stated changes): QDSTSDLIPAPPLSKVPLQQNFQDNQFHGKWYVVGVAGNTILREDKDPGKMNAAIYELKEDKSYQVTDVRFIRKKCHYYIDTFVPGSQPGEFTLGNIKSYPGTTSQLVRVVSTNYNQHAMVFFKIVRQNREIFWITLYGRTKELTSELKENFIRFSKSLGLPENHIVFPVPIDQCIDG
Sequence of natural wild-type hNGAL (human lipocalin 2) (P80188 21-198): as the sequence (P80188 21-198, stated change not applied) above

**Q.** What does the source list for O=C(N[C@H]1COC(=O)[C@@H](NC(=O)c2cccc(O)c2O)COC(=O)[C@@H](NC(=O)c2cccc(O)c2O)COC1=O)c1cccc(O)c1O [Enterobactin, enterobactin, reference compound]?
**A.** specificity and crossreactivity (binding) ([1]; 2 μM for all analytes): absence of binding; binding to wild-type hNGAL [2]: high affinity

**Q.** For O=C(N[C@H]1COC(=O)[C@@H](NC(=O)c2cccc(O)c2O)COC(=O)[C@@H](NC(=O)c2cccc(O)c2O)COC1=O)c1cccc(O)c1O.[Fe+3] [Fe-Enterobactin, enterobactin], which KD [3] is on record?
**A.** no bdg.

**Q.** And the KD [4]?
**A.** no bdg.

**Q.** And the KD [5]?
**A.** no bdg.

**Q.** What about the KD ([1]; 25° C.) of the same compound?
**A.** no bdg.

**Q.** And the KD [6]?
**A.** no bdg.

**Q.** What about the KD [7] of the same compound?
**A.** no bdg.

**Q.** And the KD [8]?
**A.** no bdg.

**Q.** What about the KD [9] of the same compound?
**A.** no bdg.

**Q.** And the KD [10]?
**A.** no bdg.

**Q.** And the KD [11]?
**A.** no bdg.

**Q.** And the KD [12]?
**A.** no bdg.

**Q.** What does the source list for CN1C([C@H]2CSC(c3ccccc3O)=N2)SC[C@H]1C(=O)O.[Fe+3] (stereo partly shown) [pch (+Fe), pyochelin]?
**A.** affinity (in words) [13]: two- to three digit nM affinity; affinity (in words) [14]: two- to three digit nM affinity; affinity (in words) [15]: no or weak affinity; absence of binding to negative control [16]: absence of binding; affinity (in words) ([17]; solution binding ELISA): single digit nM affinity

**Q.** With CN1C([C@H]2CSC(c3ccccc3O)=N2)SC[C@H]1C(=O)O (stereo partly shown) [pch (−Fe), pyochelin] as the compound, how does the “affinity (in words)” value [13] read?
**A.** weak affinity or not at all

**Q.** What about the “affinity (in words)” value [14] of the same compound?
**A.** weak affinity or not at all

**Q.** And the improved affinity ([17]; versus SEQ ID NO: 55)?
**A.** more than 75 fold

**Q.** With Pyoverdine as the compound, how does the “binding to wild-type hNGAL” value [2] read?
**A.** did not bind

Source: patent publication US10329334B2 (SANOFI, priority 2015, dated 2019)
